Laboratory results as given in PMC9805938 (Journal of Pharmaceutical Analysis, 2020).

Biological target: T1, transforming growth factor-β receptor type-I (TGF-β RI) (Homo sapiens, UniProt P36897)
T1 sequence (P36897 34-503): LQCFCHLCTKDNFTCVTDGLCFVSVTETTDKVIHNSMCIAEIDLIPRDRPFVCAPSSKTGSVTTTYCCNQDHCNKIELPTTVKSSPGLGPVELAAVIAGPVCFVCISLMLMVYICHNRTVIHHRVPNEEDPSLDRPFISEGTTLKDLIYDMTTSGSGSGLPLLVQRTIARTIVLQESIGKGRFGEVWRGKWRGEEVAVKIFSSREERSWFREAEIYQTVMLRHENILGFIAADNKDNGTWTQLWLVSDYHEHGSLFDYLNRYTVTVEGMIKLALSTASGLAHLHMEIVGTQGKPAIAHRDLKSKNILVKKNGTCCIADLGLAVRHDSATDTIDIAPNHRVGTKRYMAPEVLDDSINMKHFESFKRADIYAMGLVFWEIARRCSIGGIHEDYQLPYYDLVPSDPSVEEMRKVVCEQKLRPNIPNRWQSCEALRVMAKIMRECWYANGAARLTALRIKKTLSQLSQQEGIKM
Format: biochemical

For `Oc1ccc(/C=C/c2cc(O)cc(O)c2)cc1` [compound 12, Resveratrol], the IC50 was 2.21 ± 0.266 µM.
